# Data from patent US7105531B2, “Tricyclic protein kinase inhibitors” (WYETH, priority 1999, dated 2006).
# Counter-ions that a name gives are not always drawn.
row,SMILES,melting point
1,"CCOC(=O)CN(CCOc1cc2cc3c(Nc4cc(OC)c(Cl)cc4C)c(C#N)cnc3cc2cc1OCC)CC(=O)OCC [Example 192, ({2[4-(4-Chloro-5-methoxy-2-methylphenylamino)-3-cyano-8-ethoxybenzo[g]quinoline-7-yloxy]-ethyl}-ethoxycarbonylmethyl-amino)-acetic acid ethyl ester]",70 to 71 °C
2,"COc1cc2cc3c(Nc4ccc(Sc5nccn5C)c(Cl)c4)c(C#N)cnc3nc2cc1OCCCl [Example 174, 8-(2-Chloroethoxy)-4-{3-chloro-4-[(1-methyl-1H-imidazol-2-yl)sulfanyl]anilino}-7-methoxybenzo[b][1,8]naphthyridine-3-carbonitrile]",> 250 °C (dec.)
3,"COc1cc2cc3ncc(C#N)c(Nc4ccc(Oc5ccccc5)cc4)c3cc2cc1OC (as salt: salt) [Example 11, 7,8-Dimethoxy-4-(4-phenoxyanilino)benzo[g]quinoline-3-carbonitrile]",> 265 °C
4,"COc1cc(Nc2c(C#N)cnc3c2sc2ccc(N)cc23)c(C)cc1Cl [Example 76, 8-Amino-4-(4-chloro-5-methoxy-2-methylanilino)[1]benzothieno[3,2-b]pyridine-3-carbonitrile]",266 to 268 °C (dec.)
5,COc1cc(Nc2c(C#N)cnc3cc4cc(OC)c(OCCN5CCC(O)CC5)cc4cc23)c(Cl)cc1Cl,150 to 160 °C
6,"COc1cc2cc3c(Nc4cc(OC)c(F)cc4Cl)c(C#N)cnc3cc2cc1O [Example 220, 4-[(2-Chloro-4-fluoro-5-methoxyphenyl)amino]-8-hydroxy-7-methoxybenzo[g]quinoline-3-carbonitrile]",239 to 242 °C (dec.)
7,"Cc1ccc(Nc2c(C#N)cnc3c2C=C2N=CN=C2C3)cc1O [Example 41, 8-(3-Hydroxy-4-methylphenylamino)imidazo[4,5-g]quinoline-7-carbonitrile]",257 to 260 °C (dec.)
8,"COc1cc(Nc2c(C#N)cnc3c2C=C2N=C(NCCN4CCOCC4)N=C2C3)cc(OC)c1OC [Example 33, 2-{[2-(4-Morpholinyl)ethyl]amino}-8-(3,4,5-trimethoxyanilino)imidazo[4,5-g]quinoline-7-carbonitrile]",175 to 178 °C
9,"N#Cc1cnc2c(sc3ccc([N+](=O)[O-])cc32)c1Nc1cccc(Br)c1 [Example 91, 4-(3-Bromoanilino)-8-nitro[1]benzothieno[3,2-b]pyridine-3-carbonitrile]",> 300 °C
10,"COc1cc2cc3c(Nc4ccc(Oc5ccccc5)c(Cl)c4)c(C#N)cnc3cc2cc1OCCN1CCOCC1 [Example 213, 4-(3-Chloro-4-phenoxyphenylamino)-7-methoxy-8-(2-morpholin-4-yl-ethoxy)benzo[g]quinoline-3-carbonitrile]",190 to 194 °C
11,"Cc1ccc(Nc2c(C#N)cnc3c2oc2ccccc23)cc1O [Example 87, 4-(3-Hydroxy-4-methylphenylamino)benzo[4,5]furo[3,2-b]pyridine-3-carbonitrile]",240 °C (dec.)
12,COc1cc2cc3ncc(C#N)c(Nc4ccc(Cl)cc4Cl)c3cc2cc1OCCN1CCOCC1,115 to 119 °C (dec.)
13,"COc1cc2cc3c(Nc4ccc(F)c(Cl)c4)c(C#N)cnc3cc2cc1OCCCl [Example 185, 8-(2-Chloroethoxy)-4-(3-chloro-4-fluoroanilino)-7-methoxybenzo[g]quinoline-3-carbonitrile]",137 to 159 °C
14,"COc1cc(Nc2c(C#N)cnc3cc4cc(OCCCl)c(OC)cc4cc23)c(Cl)cc1F [Example 180, 8-(2-Chloroethoxy)-4-(2-chloro-4-fluoro-5-methoxyanilino)-7-methoxybenzo[g]quinoline-3-carbonitrile]",193 to 204 °C
15,"COc1cc2cc3ncc(C#N)c(Nc4ccc(Oc5ccccc5)c(Cl)c4)c3cc2cc1OCCN1CCOCC1 [Example 214, 4-(3-Chloro-4-phenoxyphenylamino)-8-methoxy-7-(2-morpholin-4-yl-ethoxy)benzo[g]quinoline-3-carbonitrile]",251 to 253 °C
16,"N#Cc1cnc2c(oc3ccccc32)c1Nc1cccc(Br)c1 [Example 85, 4-(3-Bromophenylamino)benzo[4,5]furo[3,2-b]pyridine-3-carbonitrile]",242 to 245 °C
17,"COc1cc(Nc2c(C#N)cnc3cc4cc(OCCCl)c(OC)cc4cc23)c(C)cc1Cl [Example 122, 4-(4-chloro-5-methoxy-2-methylanilino)-7-methoxy-8-(chloroethoxy)benzo[g]quinoline-3-carbonitrile]",132 to 168 °C (dec.)
18,"COc1cc(Nc2c(C#N)cnc3cc4cc(OCc5ccccc5)c(OC)cc4cc23)c(Cl)cc1F [Example 219, 8-(Benzyloxy)-4-[(2-chloro-4-fluoro-5-methoxyphenyl)amino]-7-methoxybenzo[g]quinoline-3-carbonitrile]",248 to 250 °C (dec.)
19,"COc1cc2cc3c(Nc4ccc(Sc5nccn5C)c(Cl)c4)c(C#N)cnc3nc2cc1OCCN1CCOCC1 [Example 176, 4-{3-Chloro-4-[(1-methyl-1H-imidazol-2-yl)sulfanyl]anilino}-7-methoxy-8-[2-(4-morpholinyl)ethoxy]benzo[b][1,8]naphthyridine-3-carbonitrile]",160 to 162 °C (dec.)
20,"COc1cc(Nc2c(C#N)cnc3c2sc2ccccc23)c(Cl)cc1Cl [Example 68, 4-(2,4-Dichloro-5-methoxyphenylamino)benzo[4,5]thieno[3,2-b]pyridine-3-carbonitrile]",234 to 236 °C
21,"CN(C)CCOc1ccc2cc3ncc(C#N)c(Nc4ccc(Cl)cc4Cl)c3cc2c1 [Example 107, 4-(2,4-Dichloroanilino)-7-[2-(dimethylamino)ethoxy]benzo[g]quinoline-3-carbonitrile]",115 to 117 °C
22,"CCOC(=O)CN(CCOc1cc2cc3ncc(C#N)c(Nc4cc(OC)c(Cl)cc4C)c3cc2cc1OCC)CC(=O)OCC [Example 193, ({2-[4-(4-Chloro-5-methoxy-2-methylphenylamino)-3-cyano-7-ethoxybenzo[g]quinoline-8-yloxy]-ethyl}-ethoxycarbonylmethylamino)-acetic acid ethyl ester]",85 to 86 °C
23,"COc1cc2cc3c(Nc4ccc(Sc5nccn5C)c(Cl)c4)c(C#N)cnc3cc2cc1OCCCl [Example 148, 8-(2-Chloroethoxy)-4-[3-chloro-4-(1-methyl-1H-imidazol-2-ylsulfanyl)phenylamino]-7-methoxybenzo[g]quinoline-3-carbonitrile]",275 to 280 °C
24,COc1cc(Nc2c(C#N)cnc3cc4cc(OC)c(OC)cc4cc23)c(C)cc1Cl,171 to 173 °C
25,COc1cc2cc3c(Nc4ccc(Sc5nccn5C)c(Cl)c4)c(C#N)cnc3cc2cc1OCCN1CCOCC1 [Example 149],> 300 °C
26,"COc1cc(Nc2c(C#N)cnc3cc4cc(OCCCl)c(OC)cc4cc23)c(Cl)cc1C [Example 182, 8-(2-Chloroethoxy)-4-(2-chloro-5-methoxy-4-methylphenylamino)-7-methoxybenzo[g]quinoline-3-carbonitrile]",222 to 236 °C
27,"Cc1ccc(Nc2c(C#N)cnc3c2sc2ccccc23)cc1O [Example 70, 4-(3-Hydroxy-4-methylphenylamino)benzo[4,5]thieno[3,2-b]pyridine-3-carbonitrile]",260 °C (dec.)
28,COc1cc2cc3ncc(C#N)c(Nc4cc(OC)c(OC)c(OC)c4)c3cc2cc1OCCN1CCOCC1,135 to 138 °C (dec.)
